Laboratory results from ChEMBL document CHEMBL1132529 (Bioorg Med Chem Lett, 1999).

Molecular target: T1, Neutrophil elastase (Homo sapiens, UniProt P08246)
T1 sequence (P08246 whole entry): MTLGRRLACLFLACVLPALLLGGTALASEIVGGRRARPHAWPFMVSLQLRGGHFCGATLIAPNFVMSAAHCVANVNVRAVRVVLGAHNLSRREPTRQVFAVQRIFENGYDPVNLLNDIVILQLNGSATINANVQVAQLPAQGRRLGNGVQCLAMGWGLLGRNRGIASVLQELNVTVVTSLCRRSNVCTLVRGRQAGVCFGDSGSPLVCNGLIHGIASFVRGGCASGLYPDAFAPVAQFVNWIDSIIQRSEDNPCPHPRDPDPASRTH
Experiment: Inhibitory constant for human neutrophil elastase

CC[C@@H](C)[C@H](NCc1ccccc1)C(=O)N[C@@H](CCCCNC(=O)C12CC3CC(CC(C3)C1)C2)C(=O)N[C@@H](CS)C(=O)N[C@H](C(=O)O)C(C)C
Ki: 270 µM
